This note sets out measurements from publication PMC10054634, “Chemical Constituents of Thesium chinense Turcz and Their In Vitro Antioxidant, Anti-Inflammatory and Cytotoxic Activities” (Molecules, 2023).

Where two headings read alike, the source gives them in different places.

In series [1] the test system is NCI-H292. Nature of the series: Cytotoxic assay (CCK-8), NCI-H292. The note with it: NCI-H292, 48 h, mean ± SD (n = 3). In kind it is cell-based, human. The procedure: (§1) Four human cancer cell lines, A549, NCI-H292, SiHa and MKN45, were purchased from the Cell Bank of the Chinese Academy of Sciences (Shanghai, China). […] Cisplatin (Abmole Bioscience, Shanghai, China) was used as positive control.
(§2) A total of 180 μL of cancer cells (5 × 10^3) were plated in each well of 96-well plates and cultured for 24 h, then the supernatant of the culture was discarded and 180 μL complete medium with different concentrations of test samples were added into triplicate wells of each cell line, respectively. Thereafter, A549, NCI-H292, SiHa and MKN45 were incubated for 48 h, respectively. The cell viability was evaluated by Cell Counting Kit-8 (CCK-8, Best Bio., Beijing, China), respectively. The experiments were performed in triplicate, and the data were expressed as the means ± SD of three independent experiments.

Series [2] has as its system SiHa. Nature of the series: Cytotoxic assay (CCK-8), SiHa. It counts as cell-based, human. Particulars: 48 h, mean ± SD (n = 3). The procedure: as §1, §2
The subject of series [3] is A549. Nature of the series: Cytotoxic assay (CCK-8), A549. In kind it is cell-based, human. Particulars: A549, 48 h, mean ± SD (n = 3). The procedure:
as §1, §2

Series [4] deals with MKN45. Nature of the series: Cytotoxic assay (CCK-8), MKN45. It counts as cell-based, human. Particulars: mean ± SD (n = 3). The procedure:
as §1, §2

Series [5] has as its system NO production in LPS-activated RAW 264.7 cells. Nature of the series: Inhibition of NO production in LPS-activated RAW 264.7 cells (Griess reaction). In kind it is cell-based. Particulars: Mus musculus, read-out: IC50 (NO inhibitory activity). As for the experimental part:
The macrophage RAW 264.7 cells were obtained from the Cell Bank of the Chinese Academy of Sciences (Shanghai, China). A total of 180 μL of RAW 264.7 cells (1 × 10^4) were plated respectively in each well of 96-well plate and cultured for 24 h, then the supernatant of the culture was discarded and 180 μL complete medium with 1 μg/mL LPS and different concentrations of test samples were added into triplicate wells for 24 h. The inhibition effects on LPS-stimulated NO production was evaluated by the Griess reaction assay. The experiments were performed in triplicate, and the data were expressed as the means ± SD of three independent experiments.

A short description of series [6]: Cytotoxicity in RAW 264.7 cells (CCK-8). Particulars: mouse.
Description: The cell viability was determined by the CCK-8 assay method. The cytotoxicity was calculated from the plotted results using untreated cells at 100%.
The mark [7] stands for this setting: RAW264.7, RAW 264.7, 1 μg/mL LPS, 24 h, mean ± SD (n = 3).
The mark [8] stands for this setting: Homo sapiens, MKN-45, MKN45, 48 h.

Usually IC50 stands for the concentration that inhibits the measured activity by half. Regarding scopoletin [Compound 28], the IC50 in series [1] was more than 200 µM; in series [2], more than 200 µM; in series [3], more than 200 µM; in series [4] (MKN45, 48 h), 52.8 ± 5.3 µM.
As for `O=C(O)/C=C/c1ccc(O)cc1` [Compound 22, p-coumaric acid], the IC50 in series [1] (Homo sapiens), in series [5] (setting [7]), in series [2] (Homo sapiens), in series [3] (Homo sapiens), in series [4] (setting [8]) and in series [6] was more than 200 µM throughout.
For `COc1cc([C@H](O)[C@@H](CO)Oc2ccc(/C=C/CO)cc2OC)ccc1O[C@@H]1O[C@H](CO)[C@@H](O)[C@H](O)[C@H]1O` [Compound 15, citrusin A], the IC50 in series [1] (Homo sapiens), in series [5] (setting [7]), in series [2] (Homo sapiens), in series [3] (Homo sapiens), in series [4] (setting [8]) and in series [6] was more than 200 µM throughout.
As to `CC/C=C\CCO[C@@H]1O[C@H](CO)[C@@H](O)[C@H](O)[C@H]1O[C@@H]1O[C@H](CO)[C@@H](O)[C@H](O)[C@H]1O` [Compound 3, (Z)-hex-3-ene 3-O-β-D-glucopyranosyl (1→2)-β-D-glucopyranoside], the IC50 in series [1] (Homo sapiens), in series [5] (setting [7]), in series [2] (Homo sapiens), in series [3] (Homo sapiens), in series [4] (setting [8]) and in series [6] was more than 200 µM in each case.
In the case of `O=c1c(O)c(-c2ccc(O)c(O)c2)oc2cc(O)cc(O)c12` [Quercetin, reference compound], the half-maximal inhibitory concentration (IC50) in series [5] (setting [7]) is 11.1 ± 1.4 µM; in series [6], more than 50 µM.
On to `COC/C=C/c1cc(OC)c2c(c1)[C@H](CO)[C@H](c1ccc(O[C@@H]3O[C@H](CO)[C@@H](O)[C@H](O)[C@H]3O)c(OC)c1)O2` [Compound 13, (7S, 8R) 9′-methoxy-dehydrodiconiferyl alcohol 4-O-β-D-glucopyranoside], for which the IC50 in series [1] (Homo sapiens), in series [5] (setting [7]), in series [2] (Homo sapiens), in series [3] (Homo sapiens), in series [4] (setting [8]) and in series [6] was more than 200 µM throughout.
Take `C[C@]12CC[C@H](O)C[C@@]1(O)CCC1C2CC[C@]2(C)[C@@H](C3=CC(=O)OC3)CC[C@]12O` (stereo partly shown) [Compound 4, perlplogemn]: the IC50 in series [1] was found to be 22.2 ± 1.1 µM; in series [3], 17.4 ± 2.4 µM; in series [4] (MKN45, 48 h) it was 9.5 ± 0.7 µM.
For the compound `COc1cc([C@@H](O)[C@@H](CO)Oc2c(OC)cc(/C=C/CO)cc2OC)cc(OC)c1O[C@@H]1O[C@H](CO)[C@@H](O)[C@H](O)[C@H]1O` [Compound 14, picraquassioside C], the IC50 in series [1] (Homo sapiens), in series [5] (setting [7]), in series [2] (Homo sapiens), in series [3] (Homo sapiens), in series [4] (setting [8]) and in series [6] was more than 200 µM in each case.
For `OCC1OC(OC2C(OCCc3ccccc3)OC(CO)C(O)C2O)C(O)C(O)C1O` (stereo not drawn) [Compound 8, phenethyl alcohol β-sophoroside], the IC50 in series [1] (Homo sapiens), in series [5] (setting [7]), in series [2] (Homo sapiens), in series [3] (Homo sapiens), in series [4] (setting [8]) and in series [6] was more than 200 µM in each case.
As for `COc1cc(/C=C/C=O)cc(OC)c1O[C@@H]1O[C@H](CO)[C@@H](O)[C@H](O)[C@H]1O` [Compound 29, sinapaldehyde glucoside], the IC50 in series [1] (Homo sapiens) is more than 200 µM; in series [5] (RAW264.7, 24 h) it was more than 200 µM; in series [2] (Homo sapiens), more than 200 µM; in series [3] (Homo sapiens), more than 200 µM; in series [4] (setting [8]) it was more than 200 µM; in series [6], more than 200 µM.
For `OCCc1ccc(O)c(O[C@@H]2O[C@H](CO)[C@@H](O)[C@H](O)[C@H]2O[C@@H]2O[C@H](CO)[C@@H](O)[C@H](O)[C@H]2O)c1` [Compound 2, 3,4-dihydroxyphenethyl alcohol 3-O-β-D-glucopyranosyl (1→2)-β-D-glucopyranoside], the IC50 in series [1] (Homo sapiens), in series [5] (setting [7]), in series [2] (Homo sapiens), in series [3] (Homo sapiens), in series [4] (setting [8]) and in series [6] was more than 200 µM in each case.
Consider `CO[C@H]1C[C@H](OC2CC[C@]3(C)C4CC[C@]5(C)[C@@H](C6=CC(=O)OC6)CC[C@]5(O)C4CC[C@]3(O)C2)O[C@H](C)[C@H]1O[C@@H]1O[C@H](CO)[C@@H](O)[C@H](O)[C@H]1O` (stereo partly shown) [Compound 5, periplocin], for which the IC50 in series [1] (Homo sapiens) is less than 0.1 µM; in series [5] (setting [7]), more than 200 µM; in series [2] (Homo sapiens), less than 0.1 µM; in series [3] (Homo sapiens) it was less than 0.1 µM; in series [4] (setting [8]), less than 0.1 µM; in series [6], more than 200 µM.
Regarding `COc1cc(/C=C/CO)ccc1O[C@@H]1O[C@H](CO)[C@@H](O)[C@H](O)[C@H]1O` [Compound 25, coniferin], the IC50 in series [1] (Homo sapiens), in series [5] (setting [7]), in series [2] (Homo sapiens), in series [3] (Homo sapiens), in series [4] (setting [8]) and in series [6] was more than 200 µM in each case.
Take `COc1cc(C2Oc3c(OC)cc(CCCO)cc3C2CO)ccc1OC1OC(CO)C(O)C(O)C1O` [Compound 12, dihydrodehydro diconiferyl alcohol 4-O-β-D-glucoside]: the half-maximal inhibitory concentration (IC50) in series [1] (Homo sapiens), in series [5] (setting [7]), in series [2] (Homo sapiens), in series [3] (Homo sapiens), in series [4] (setting [8]) and in series [6] was more than 200 µM throughout.
As for `COc1cc([C@H](O)[C@@H](CO)Oc2c(OC)cc(/C=C/CO)cc2OC)ccc1O[C@@H]1O[C@H](CO)[C@@H](O)[C@H](O)[C@H]1O` [Compound 16, citrusin B], the IC50 in series [1] (Homo sapiens), in series [5] (setting [7]), in series [2] (Homo sapiens), in series [3] (Homo sapiens), in series [4] (setting [8]) and in series [6] was more than 200 µM each time.
In the case of `COc1cc(/C=C/CO)cc(OC)c1O[C@@H]1O[C@H](CO)[C@@H](O)[C@H](O)[C@H]1O` [Compound 24, syringin], the IC50 in series [1] (Homo sapiens) is more than 200 µM; in series [5] (RAW264.7, 24 h), more than 200 µM; in series [2] (Homo sapiens), more than 200 µM; in series [3] (Homo sapiens), more than 200 µM; in series [4] (setting [8]), more than 200 µM; in series [6], more than 200 µM.
As to `N.N.[Cl][Pt][Cl]` [cisplatin, reference compound], the IC50 in series [1] was 52.8 ± 5.3 µM; in series [2] it was 7 ± 0.7 µM; in series [3] it was 19.5 ± 6.7 µM; in series [4] (MKN45, 48 h), 7 ± 0.3 µM.
